Converted amounts (≈) assume the structure as drawn. Like-named read-outs stand apart in the source and are kept apart here.
Columns and labels:
[1] = test system: Enterococcus faecalis ATCC 29212; test: Antimicrobial MIC, 2-fold serial dilution; conditions: for MIC (μg/mL) EF: Gram-positive, Enterococcus faecalis (ATCC 29212), Inactive at >128 μg/mL
[2] = test system: Micrococcus luteus DMST 15503; test: Antimicrobial MIC, 2-fold serial dilution; conditions: for MIC (μg/mL) MT: Gram-positive, Micrococcus luteus (DMST 15503), Inactive at >128 μg/mL; for MIC: Micrococcus luteus, DMST15503, read-out: MIC (μg/mL) MT
[3] = test system: Staphylococcus aureus ATCC 25923; test: Antimicrobial MIC, 2-fold serial dilution; conditions: for MIC (μg/mL) SA: Gram-positive, Staphylococcus aureus (ATCC 25923), Inactive at >128 μg/mL; for MIC: Staphylococcus aureus, ATCC25923, read-out: MIC (μg/mL) SA
α-glucosidase = α-glucosidase (Saccharomyces cerevisiae, UniProt P53341); assay type: biochemical; conditions: Inactive at >100 μM
Sequence of α-glucosidase (P53341 whole entry): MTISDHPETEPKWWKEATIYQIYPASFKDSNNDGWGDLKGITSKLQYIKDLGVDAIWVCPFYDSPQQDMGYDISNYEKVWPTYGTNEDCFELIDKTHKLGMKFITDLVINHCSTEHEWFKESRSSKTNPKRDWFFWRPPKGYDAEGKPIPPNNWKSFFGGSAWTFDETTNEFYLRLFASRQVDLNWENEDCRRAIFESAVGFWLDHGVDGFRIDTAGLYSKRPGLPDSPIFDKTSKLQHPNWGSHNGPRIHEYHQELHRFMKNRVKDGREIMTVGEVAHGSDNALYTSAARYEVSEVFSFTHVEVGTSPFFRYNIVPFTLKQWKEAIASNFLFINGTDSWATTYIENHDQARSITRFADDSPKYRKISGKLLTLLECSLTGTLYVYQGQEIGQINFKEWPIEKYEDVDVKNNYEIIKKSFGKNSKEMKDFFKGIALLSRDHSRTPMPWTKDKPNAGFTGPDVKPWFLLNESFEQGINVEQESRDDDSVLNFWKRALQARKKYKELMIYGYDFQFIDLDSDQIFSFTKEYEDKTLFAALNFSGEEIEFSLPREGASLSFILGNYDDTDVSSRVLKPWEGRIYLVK

3T3-L1 cells = test: in vitro; assay type: cell-based; conditions: for toxicity to the cells: 3T3-L1 adipocyte cells, glucose consumption assay
RAW 264.7 cells [4] = test: Nitric oxide production inhibition assay; assay type: cell-based
[5] = test system: Streptococcus pyogenes ATCC, 19615; test: Antimicrobial MIC, 2-fold serial dilution; conditions: for MIC (μg/mL) SP: Gram-positive, Streptococcus pyogenes (ATCC, 19615), Inactive at >128 μg/mL; for MIC: Streptococcus pyogenes, read-out: MIC (μg/mL) SP
L6 myotube cells = test: Glucose uptake assay; assay type: cell-based; conditions: Inactive at >100 μM
3T3-L1 adipocyte cells = test: Glucose consumption assay; assay type: cell-based; conditions: for Glucose consumption (IC50, μM): induction of glucose consumption, 3T3-L1 adipocyte cells, Inactive at >100 μM; for EC50: Mus musculus, 3T3-L1, read-out: Glucose consumption (IC50, μM)
[6] = test system: Salmonella typhi DMST 22842; test: microbe, parasite or virus in culture; assay type: cell-based; conditions: for MIC (μg/mL) ST: Gram-negative, Salmonella typhi (DMST 22842), Inactive at >128 μg/mL
[7] = test system: Pseudomonas aeruginosa ATCC 10145; test: Antimicrobial MIC, 2-fold serial dilution; conditions: for MIC: Pseudomonas aeruginosa, ATCC10145, read-out: MIC (μg/mL) PA
α-amylase = α-amylase (Sus scrofa, UniProt P00690); assay type: biochemical; conditions: Inactive at >100 μM
Sequence of α-amylase (P00690 16-511): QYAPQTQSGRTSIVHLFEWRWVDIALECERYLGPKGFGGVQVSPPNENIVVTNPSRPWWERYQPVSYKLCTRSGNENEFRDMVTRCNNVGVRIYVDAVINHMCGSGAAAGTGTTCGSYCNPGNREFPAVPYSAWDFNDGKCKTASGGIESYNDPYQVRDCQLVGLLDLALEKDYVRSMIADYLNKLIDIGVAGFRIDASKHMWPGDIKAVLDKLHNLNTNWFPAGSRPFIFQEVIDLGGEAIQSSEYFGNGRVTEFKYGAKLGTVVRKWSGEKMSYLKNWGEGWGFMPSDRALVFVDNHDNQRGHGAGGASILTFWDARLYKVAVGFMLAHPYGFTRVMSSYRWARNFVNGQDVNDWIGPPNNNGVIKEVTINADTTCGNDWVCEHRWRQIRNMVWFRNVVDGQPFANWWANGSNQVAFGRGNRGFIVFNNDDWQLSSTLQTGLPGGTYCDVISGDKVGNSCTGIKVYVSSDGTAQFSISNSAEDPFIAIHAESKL

[8] = test system: methicillin resistant Staphylococcus aureus NPRC 001R; test: Antimicrobial MIC, 2-fold serial dilution; conditions: for MIC (μg/mL) MRSA: Gram-positive, Methicillin Resistant Staphylococcus aureus (NPRC 001R), Inactive at >128 μg/mL
[9] = test system: Salmonella typhimurium DMST 562; test: Antimicrobial MIC, 2-fold serial dilution; conditions: for MIC (μg/mL) STR: Gram-negative, Salmonella typhimurium (DMST 562), Inactive at >128 μg/mL; for MIC: Salmonella enterica, TYPHIMURIUM, read-out: MIC (μg/mL) STR
[10] = test system: Shigella flexneri DMST 4423; test: Antimicrobial MIC, 2-fold serial dilution; conditions: for MIC (μg/mL) SF: Gram-negative, Shigella flexneri (DMST 4423), Inactive at >128 μg/mL; for MIC: Shigella flexneri, DMST4423, read-out: MIC (μg/mL) SF
[11] = test system: advanced glycation end products (AGEs); test: Glycation inhibition assay; assay type: biochemical; conditions: Inactive at >100 μM
[12] = test system: Escherichia coli TISTR 780; test: Antimicrobial MIC, 2-fold serial dilution; conditions: Gram-negative; Escherichia coli (TISTR 780); Inactive at >128 μg/mL
[13] = test system: Candida albicans ATCC 10231; test: Antimicrobial MIC, 2-fold serial dilution; conditions: Fungi; Candida albicans (ATCC 10231); Inactive at >128 μg/mL
RAW 264.7 cells [14] = test: in vitro; assay type: cell-based; conditions: MTT assay
S. aureus and MRSA [15] = test: Antibacterial MIC against S. aureus and MRSA; conditions: Staphylococcus aureus, read-out: MIC values against S. aureus and MRSA
S. aureus and MRSA [16] = conditions: previous study; ref Innok et al., 2010; cited from earlier work
[17] = test system: Gram-positive bacteria and fungi; test: Antimicrobial MIC, summary over Gram-positive bacteria and fungi; conditions: read-out: MIC values against Gram-positive bacteria and fungi
in vitro [18] = assay type: cell-based; conditions: mouse
in vitro [19] = assay type: cell-based; conditions: mouse; remark: listed apart in the source
[20] = LPS-stimulated NO production in RAW 264.7 cells, Inactive at >100 μM

Row | Molecule | MIC (μg/mL) EF [1] | MIC (μg/mL) MT [2] | MIC (μg/mL) SA [3] | NO Inhibition (IC50, μM) (RAW 264.7 cells [4]; [20]) | MIC (μg/mL) SP [5] | Glucose consumption (IC50, μM) (3T3-L1 adipocyte cells) | MIC (μg/mL) ST [6] | MIC (μg/mL) MRSA [8] | MIC (μg/mL) STR [9] | MIC (μg/mL) SF [10] | MIC (μg/mL) EC [12] | MIC (μg/mL) CA [13] | MIC [7] [µg/mL] | Glycation inhibition (IC50, μM) [11] | EC50 (3T3-L1 adipocyte cells) [µM] | further results
1 | 4′-hydroxy-6,3′,5′-triprenylisoflavanone [Compound 24] | Inactive | Inactive | 128 µg/mL | Inactive | 128 µg/mL | Inactive | 128 µg/mL | 128 µg/mL | Inactive | Inactive | 128 µg/mL | 128 µg/mL |  |  |  | α-Glucosidase inhibition (IC50, μM) (α-glucosidase): Inactive; Cell viability of 3T3-L1 cells (%) (3T3-L1 cells; MTT assay): 39.7 ± 0.7%; Glucose uptake (fold) (L6 myotube cells): Inactive; MIC (μg/mL) PA ([7]; Gram-negative, Pseudomonas aeruginosa (ATCC 10145), Inactive at >128 μg/mL): 128 µg/mL; α-Amylase inhibition (IC50, μM) (α-amylase): Inactive; IC50 ([11]; read-out: Glycation inhibition (IC50)): 40.5 ± 0.37 µM; Cell viability raw 264.7 cells (%) (RAW 264.7 cells [14]): 3.7 ± 0.1%
2 | N=C(N)NN [Aminoguanidine, aminoguanidine, reference compound] |  |  |  |  |  |  |  |  |  |  |  |  |  |  |  | IC50 (RAW 264.7 cells [4]; read-out: NO Inhibition (IC50), LPS-stimulated NO production in RAW 264.7 cells, Inactive at >100 μM): 22.4 ± 0.78 µM; Cell viability raw 264.7 cells (%) (RAW 264.7 cells [14]): 97.9 ± 0.8%
3 | COc1ccc2c(c1CC=C(C)C)O[C@H]1c3ccc(O)cc3OC[C@@H]21 [Compound 10, sandwicensin] |  |  |  | Inactive |  | Inactive | Inactive |  |  |  | Inactive |  | 128 (≈ 378 µM) | Inactive |  | MIC ([1]; Enterococcus faecalis, ATCC29212, read-out: MIC (μg/mL) EF): 8 µg/mL (≈ 23.6 µM); MIC [2]: 8 µg/mL (≈ 23.6 µM); MIC [3]: 64 µg/mL (≈ 189 µM); MIC (S. aureus and MRSA [15]): 8 to 64 µg/mL (≈ 23.6 to 189 µM); MIC [5]: 8 µg/mL (≈ 23.6 µM); MIC values against S. aureus and MRSA (reported) (S. aureus and MRSA [16]): 8 to 64 µg/mL; MIC ([8]; Staphylococcus aureus, MRSA, read-out: MIC (μg/mL) MRSA): 8 µg/mL (≈ 23.6 µM); MIC [9]: 128 µg/mL (≈ 378 µM); MIC [10]: 128 µg/mL (≈ 378 µM); MIC [17]: 8 to 64 µg/mL (≈ 23.6 to 189 µM)
4 | O=c1c(-c2ccc(O)cc2)coc2cc(O)cc(O)c12 [Compound 21, genistein] | Inactive | Inactive | Inactive | Inactive | Inactive | Inactive | Inactive | Inactive | Inactive | Inactive | Inactive | Inactive | 128 (≈ 474 µM) | Inactive |  | 
5 | CC(C)=CCc1cc([C@@H]2CC(=O)c3c(O)cc(O)cc3O2)cc(CC=C(C)C)c1O [Compound 25, abyssinone V] | Inactive |  |  | Inactive |  | Inactive |  | Inactive |  |  | Inactive | Inactive | 128 (≈ 313 µM) | Inactive |  | MIC [2]: 128 µg/mL (≈ 313 µM); MIC [3]: 128 µg/mL (≈ 313 µM); MIC [5]: 128 µg/mL (≈ 313 µM); MIC ([6]; Salmonella enterica, TYPHI, read-out: MIC (μg/mL) ST): 128 µg/mL (≈ 313 µM); MIC [9]: 128 µg/mL (≈ 313 µM); MIC [10]: 128 µg/mL (≈ 313 µM)
6 | COc1c2c(cc3oc(=O)ccc13)OC(C)(C)C=C2 [Compound 26, xanthoxyletin] | Inactive | Inactive | Inactive | Inactive | Inactive |  | Inactive | Inactive | Inactive | Inactive | Inactive | Inactive | 128 (≈ 496 µM) | Inactive | 33.4 ± 0.34 | toxicity to the cells (3T3-L1 cells): without toxicity to the cells
7 | CC1(C)C=Cc2cc(C=O)ccc2O1 [Compound 27, 2,2-dimethyl-2H-chromene-6-carboxaldehyde] | Inactive | Inactive | Inactive |  | Inactive |  | Inactive | Inactive | Inactive | Inactive | Inactive | Inactive | 128 (≈ 680 µM) | Inactive | 29.1 ± 0.86 | toxicity to the cells (3T3-L1 cells): without toxicity to the cells; viability (in vitro [18]): 98.2 ± 1.7%; IC50 (RAW 264.7 cells [4]; Mus musculus, RAW264.7, read-out: NO Inhibition (IC50, μM)): 52.5 ± 0.56 µM; viability (in vitro [19]): 97.9 ± 1.2%
8 | COc1ccc(C=CC(=O)O)c(O)c1 [Compound 28, 2-hydroxy-4-methoxy-cinnamic acid] | Inactive | Inactive | Inactive | Inactive | Inactive | Inactive | Inactive | Inactive | Inactive | Inactive | Inactive | Inactive | 128 (≈ 659 µM) | Inactive |  | 
9 | CN(C)C(=N)N=C(N)N [Metformin, metformin, reference compound] |  |  |  |  |  |  |  |  |  |  |  |  |  |  | 47.2 ± 1.17 | viability (in vitro [18]): 96.1 ± 0.9%; viability (in vitro [19]): 99.4 ± 0.6%

Reference: publication PMC8102414 (Heliyon, 2021)
